Test results: US8790678B2, “Biomaterials having nanoscale layers and coatings” (Washington University, priority 2006, dated 2014)
Each block holds one compound with its values, some of them ahead of it. Bridges are numbered along the chain shown (N, C = ends). Where no end group is shown, it is not given here.

Key:
[1] = Sulforhodamine B release from preloaded hydrogels; type: physicochemical; conditions: 500 nmol preloaded, 554 nm
Method: The effect of gel mesh size on the diffusion of small molecules was tested using a water-soluble dye molecule, sulforhodamine B. Sulforhodamine B (500 nmol) was preloaded into gels formed with PEG-OVS crosslinked with albumin, PEG-diamine, or DTT. The gels were incubated win PBS and the release of sulforhodamine B was detected by visible light spectroscopy at 554 nm over time. The molecular weight of sulforhodamine is 580.7, compared to 379.5 for S1P, and the diffusivity of the dye would be expected to be lower than that of S1P. Using the Wilke-Chang correlation, we calculated a diffusion coefficient of 3.42×10^−6 cm^2/sec for sulforhodamine and 4.15×10^−6 cm^2/sec for S1P, both at 37° C.

[2] = test system: Human aortic endothelial cells; experiment: Single cell tracking on RGD/PEG-OVS/albumin hydrogels under fluid shear stress; type: cell-based; conditions: for loss of cells from the hydrogel: highest RGD concentration, over 12 h
Method: Human aortic endothelial cells seeded onto RGD/PEG-OVS/albumin hydrogels at 1000-2000 cells/cm^2 were tracked under 20 dynes/cm^2 fluid shear stress in HEPES-buffered low serum medium (HEPES-LSM; MCDB 131 with 0.1% FBS, 1% ABAM, […] HEPES, pH 7.4) containing 0.4% FAF-BSA for 12 h.
Time lapse microscopy images were obtained every 2 min for 12 h of endothelial cell migration on the surface of RGD containing PEG hydrogels. The percent of cells remaining on the gels during the course of the experiment was recorded for each RGD concentration. The projected cell areas of all cells were determined by manually outlining the cells after 3 h under 20 dyne/cm^2 shear stress. Single endothelial cells were manually tracked for 12 h to obtain XY-coordinate data for the center of each cell. Coordinate data from every six minutes (Δt=6 min) for all cells in each experiment were saved as variables for analysis in MATLAB (The MathWorks, Natick, Mass.). At each time point i, ti=iΔt, the mean squared displacement was calculated using the overlapping interval method. The speed of each individual was calculated by dividing the root mean-square displacement for a single time interval by the tracking interval (6 min). Each cell's persistence time was determined by fitting the persistent random walk model given by Equation 1: <d^2(t)>=2S^2P[t−P(1−e^−t/P)] [1] using the calculated speed by nonlinear least squares regression analysis as previously described (Dunn 1983; Othmer, Dunbar and Alt 1988; Harms et al. 2005). Speed simply represents the total path length of a cell over time. Persistence time represents the time period between changes in the direction of movement of more than 60°. Path length is calculated as the product of speed and persistence time. Cell dispersion is the product of speed squared and persistence time. Cell areas were obtained by manually tracing cells. All data was analyzed by ANOVA Scheffe post hoc. Endothelial Response to Linear RGD Concentration—Cell Attachment Strength

[3] = Hydrogel mesh size by modified SDS-PAGE gel; type: physicochemical; conditions: PEG-OVS/albumin layer in SDS-PAGE gel
Method: The mesh size of PEG-OVS/albumin hydrogels was investigated using a modified SDS-PAGE gel to characterize the migration of albumin through the PEG hydrogels. A 15% acrylamide gel was formed at the bottom of the casting chamber, with a spacer to form a well on the left side of the gel. After the acrylamide solidified, the PEG-OVS/albumin precursor solution was pipetted into the formed well. The casting stand was placed in a humidified 37° C. incubator for 24 h to crosslink the PEG gel. A 7% acrylamide gel was formed over the polymerized gels, followed by a stacking gel. A solution of bovine serum albumin (BSA) was loaded into the wells of the gel, which was run under standard conditions. The gel was stained with Coomassie Blue.

[4] = test system: D-erythro-sphingosine; experiment: Activity of GST-tagged sphingosine kinase by TLC; type: biochemical, human; conditions: 10 μg/mL protein, 50 μM D-erythro-sphingosine
Excerpt: Hydrogels were formed with the enzyme sphingosine kinase to produce S1P in the materials from a precursor (sphingosine) naturally present in the blood. Human sphingosine kinase was cloned by RT-PCR from human umbilical vein endothelial cell mRNA. The PCR insert with the correct sequence was transferred from the cloning vector to the expression vector, pGEX-6P-1, using the restriction enzymes EcoRI and XhoI, to create an N-terminal GST-tagged sphingosine kinase [SEQ ID NO. 1]. The plasmid with the correct sequence was transfected into BL21 E. coli and the cells were grown to OD600 0.6 in LB medium. Protein expression was induced with 1 mM IPTG. After 3 h, the cells were harvested by centrifugation for 20 min at 6000 g, 4° C. The cells were lysed with lysozyme and sonication. The lysate was centrifuged at 50,000 g for 45 min at 4° C. and the supernatant was filtered. The GST-containing protein was purified using GSTrap FF columns. Activity of the protein (10 μg/mL) was assessed by incubation with 50 μM D-erythro-sphingosine and […] in 0.1% BSA in PBS for 0-30 min, followed by dilution 1:1 with methanol and acidification to pH 1 with HCl. Lipids were extracted into chloroform and analyzed by thin layer chromatography on silica plates with butanol-acetic acid-water 6:2:2, with detection by ninhydrin. There was complete conversion to sphingosine 1-phosphate within 30 min.

[5] = test system: Human Umbilical Vein Endothelial Cells (HUVEC); experiment: Cell adhesion assay on layer-by-layer PEG hydrogel coatings; type: cell-based; conditions: RGD peptide attached to PEG-VS/PEG-diamine hydrogel; medium containing serum proteins
Method: Hydrogels were formed layer-by-layer by conjugate addition reactions between PEG-VS and PEG-diamine. First, the surface of the substrate was activated to create reactive amine groups. Clean glass coverslips were incubated in 2% 3-aminopropyltriethoxysilane in dry acetone solution for one hour with gentle shaking. The aminophase coverslips were then cured at 100° C. for a 3 h, and stored in a clean Petri dish until use. The activated substrates were incubated with a solution containing 1% eight-arm PEG-VS overnight at pH 8.5 and 37° C. The substrates were subsequently incubated with a solution of 1% PEG-diamine (mol. wt. 3400, Shearwater Polymers) for 1 h at 37° C. This two-step process was repeated to create multiple layers (one layer comprises PEG-VS+PEG-diamine). Between incubations with PEG-VS or PEG-diamine, the surfaces were washed six times with PBS. After the formation of five layers, the substrates were incubated with PEG-VS for 1 h at 37° C. […]
The RGD peptide acetyl-GCGYGRGDSPG [SEQ ID NO. […] The peptide was purified by C18 chromatography and analyzed by MALDI-TOF mass spectrometry. […]
Human Umbilical Vein Endothelial Cells (HUVEC, Clonetics) were grown in endothelial cell growth medium (EGM, Clonetics) on tissue culture polystyrene at 37° C. and 5% CO2. […] Cells on the surfaces were imaged by phase contrast microscopy and the number of cells was counted manually.

[6] = test system: HAEC; experiment: Centrifugation assay of cell adhesion strength on RGD hydrogels; type: cell-based, human; conditions: range as RGD concentration in PEG-OVS/albumin hydrogel was increased; 6 h adhesion
Method: Cell adhesion strengths to the RGD containing hydrogel surfaces were assessed using a centrifugation assay to apply controlled detachment forces. PEG hydrogels (75 μL) of various concentrations of RGD were formed on the bottom of a 48-well non-treated culture plate. Following crosslinking for 24 h, HAEC were seeded onto the gels at 10,000 cells/cm^2 in 500 μL EGM. After 6 h to allow the cells to attach and spread, the gels were washed with DPBS. The wells were filled with DPBS to the top of the wells and then covered with adhesive sealing tape. Images were obtained at 4× to quantify the number of cells initially attached to the hydrogel. […] The percent of cells remaining on the hydrogel was quantified. […]
The effects of changing the linear RGD concentration on the initial adhesion strength of endothelial cells to PEG-OVS/albumin hydrogels were examined. […] Cell adhesion strengths were assessed by centrifugation of inverted, sealed plates containing hydrogels polymerized in the bottoms of wells. The percent of cells remaining adhered to the hydrogels after centrifugation for 5 min was measured for various forces of detachment on each concentration of linear RGD. […]
The initial adhesion strength of endothelial cells to the PEG hydrogels containing cyclic RGD peptide was measured after 6 hours to allow for endothelial cell adhesion. […]

[7] = test system: chorioallantoic membrane (CAM); experiment: Chick chorioallantoic membrane (CAM) angiogenesis assay; type: in vivo, chicken; conditions: 50 ng spotted on Thermanox coverslip, two days
Method: Embryonated chicken eggs were incubated blunt-end up in a 37° C. incubator. At embryonal day 6, the top of the egg was cracked and removed using tweezers to create a 1.5 cm diameter opening. The inner shell membrane was removed, exposing the CAM. A 20 μL PEG hydrogel was then placed onto the CAM. As controls, 50 ng bFGF or 50 ng S1P were spotted onto small pieces of Thermanox coverslips (Nunc), air dried and placed onto the CAM. The eggs were sealed with parafilm and returned to the incubator. After two days of incubation, the eggs were reopened and the degree of angiogenesis was visually assessed.

time to near complete release of dye into PBS [1]: ~6 h
Compound: CCN(CC)c1ccc2c(-c3ccc(S(=O)(=O)O)cc3S(=O)(=O)[O-])c3ccc(=[N+](CC)CC)cc-3oc2c1 [sulforhodamine B]

Compound: Ac-GCNAC*RGDGWC*G (Ac-GCNACRGDGWCG; disulfide 5-11) [cyclic RGD, cyclic RGD peptide cyclized by disulphide formation]
cell migration speed relative to cells without RGD ([2]; 0.69 mM cyclic RGD, 100 nM S1P): more than twice | migration speed greater than the highest speed on linear RGD with 100 nM S1P ([2]; 0.69 mM cyclic RGD, 100 nM S1P): 44% | loss of cells from the hydrogel ([2]; 20 dyne/cm^2): about 20% | RGD concentration of peak migration speed ([2]; with 100 nM S1P, 20 dyne/cm^2): 0.69 mM

Compound: Albumin: bovine serum albumin loaded on the SDS-PAGE gel
migration of protein through the PEG hydrogel [3]: hindered

Compound: N-terminal GST-tagged sphingosine kinase: human sphingosine kinase cloned from HUVEC mRNA with N-terminal GST tag
time to complete conversion to sphingosine 1-phosphate [4]: ≤ 30 min

Compound: acetyl-GCGYGRGDSPG (Ac-GCGYGRGDSPG; not fully specified (C-terminus); printed as acetyl-GCGYGRGDSPG) [linear RGD, cell adhesion-promoting peptide]
HUVEC adhesion to multilayered PEG hydrogel [5]: restored HUVEC adhesion | detachment force required to remove 50% of the cells (F50) [6]: 850-1120 pN | loss of cells from the hydrogel ([2]; 20 dyne/cm^2): less than 5% | RGD concentration of maximum dispersion ([2]; without S1P): 4.12 mM | RGD concentration of maximum path length ([2]; without S1P): 4.12 mM | RGD concentration of maximum cell speed ([2]; without S1P, 20 dynes/cm^2): 4.12 mM

Compound: aprotinin
migration of protein through the PEG hydrogel [3]: freely passed through

Compound: bFGF: control angiogenic factor in CAM assay
angiogenic response [7]: strong angiogenic responses

Compound: lysozyme: molecular weight marker (14.4 kDa)
migration of protein through the PEG hydrogel [3]: freely passed through
